From patent publication US20260248833A1, “PYRIMIDINE NUCLEOSIDE TREATMENTS” (The Children`s Medical Center Corporation, priority 2022, published 2026)
“Also recorded” adds a separate entry of the source.

Columns and labels:
K562 cells = assay: Terminal restriction fragment (TRF) Southern blot telomere length, K562 cells; assay type: cell-based, human
Description: (§1) Cell culture: K562 cells (ATCC) were grown in RPMI1 1640 (Gibco) media supplemented with 10% fetal bovine serum. 293T cells (ATCC) were grown in DMEM (Gibco) supplemented with 10% fetal bovine serum, and were subcultured using 0.05% trypsin (Gibco). iPSCs were derived, characterized and cultured as previously described. iPSCs were grown in Essential 8 Media (Life Technologies) supplemented with the ROCK inhibitor Y271632 (Stem Cell Technologies) at 10 μM on plates coated with hES qualitied Matrigel matrix (Corning) and were subcultured using Accutase (Stem Cell Technologies).
(§2) Terminal Restriction Fragment Length Analysis: genomic DNA was isolated from cells using the Invitrogen Purelink Genomic DNA mini kit (Invitrogen). 1-3 μg of gDNA was digested with RsaI and HinfI for 2-3 hrs at 37° C. and loaded onto a 0.6% agarose gel followed by Southern blotting using the Telotaggg Telomere Length Assay Kit (Roche). Quantification was performed using the WALTER webtool.

[1] = test system: iPSCs from a healthy donor; assay: TRF Southern blot telomere length, wildtype iPSCs; assay type: cell-based, human
Description: as §1, §2

[2] = test system: TERC−/− 293T cells stably expressing dmDNK; assay: Telomere DNA content blot in dmDNK expressing cells; assay type: cell-based, human; conditions: TERT and TERC transfected, nucleoside 24-30 hrs, versus eGFP control
Excerpt: Combining thymidine treatment with expression of a nucleoside kinase to improve efficiency of nucleoside uptake and thereby promote telomere lengthening. combining nucleoside treatment with the expression of TK1, or the deoxynucleoside kinase from Drosophila (dmDNK), either of which can be delivered via mRNA. See FIG. 29A-B. TERC-/- 293T cells stably expressing dmDNK or eGFP (control) were transfected with vectors to express […], then cultured in the indicated doses of nucleoside, followed by analysis of telomere DNA content via blotting and detection with a complementary oligonucleotide probe.

[3] = test system: pCHK1-S345 and pRPA32-S33; assay: Immunoblot of replication stress signaling in iPSCs; assay type: cell-based, human; conditions: iPSCs treated with dT
wild-type iPSCs = assay: Cell cycle analysis by DAPI staining and flow cytometry, iPSCs; assay type: cell-based, human; conditions: 24 hours
Description: (§3) Cell cycle analysis by DNA content staining and flow cytometry: Cells were prepared either for flow-FISH staining as described (for experiments in FIG. 5) or by ethanol fixation (for data in FIG. 6, 27), followed by rehydration and counterstaining using DAPI (BD Biosciences) and analysis on an LSR-II or Fortessa analyzer (BD Biosciences) using BD FACSDiva 8.0.2. Cells were gated on FSC/SSC as described in FIG. 6d using FlowJo V10.7.1.

[4] = test system: iPSCs derived from TBD patients; assay: TRF Southern blot telomere length, TBD patient-derived iPSCs; assay type: cell-based, human; conditions: for telomere length increase / telomere elongation: 50 μM dT for three weeks; for telomere elongation: panel of TBD patient iPSCs (TERC, DKC1, PARN)
Description: as §1, §2

293T cells = assay: Cell cycle analysis by DAPI staining and flow cytometry, 293T cells; assay type: cell-based, human
Description: as §3

cell cycle progression = conditions: cited from earlier work
[5] = cited from earlier work
[6] = test system: mouse model of TK2 deficiency; conditions: 520 mg/kg/day of dT; cited from earlier work
[7] = test system: T-free super-telomerase expressing cells (293T TERC-null); assay: Slot blot of GGAAAG repeat content in cellular DNA; assay type: cell-based, human
Description: Slot blotting: slot blotting was performed as described with minor modifications. Briefly, DNA concentration was normalized to 20 ng/μl using a nanodrop spectrophotometer. 3.3 μl of DNA was added to 16.5 μl of denaturation solution (0.5 M NaOH, 1.5 M NaCl) and heated to 55° C. for 30 minutes. 495 μl of neutralization solution (0.5 M Tris-HCl, 1.5 M NaCl) was added to denatured DNA and 156 μl of this solution was added in triplicate to different slots on a Bio-Dot SF Apparatus (Bio-Rad) and blotted onto Hybond N+ Membrane (Cytivia). Membrane preparation and washing was performed as described. For samples with paired GGTTAG and GGAAAG slot blots, the above recipe was doubled, and 156 μl was loaded onto parallel membranes in triplicate on each membrane. After blotting, membranes were hybridized and detected as described above for TRF Southern blots using the probe indicated in the figure. Blots were analyzed using ImageJ. Statistical analysis was performed using Graphpad prism V9.1.0.

Cc1cn([C@H]2C[C@H](O)[C@@H](CO)O2)c(=O)[nH]c1=O [dT, 1-[(2R,4S,5R)-4-Hydroxy-5-(hydroxymethyl)oxolan-2-yl]-5-methylpyrimidine-2,4 (1H,3H)-dione]
thymidine doses driving robust telomere length increases (K562 cells; 34 days of culture in low dose thymidine (FIGS. 2L and 2N)): ≥ 5 µM
doses leading to robust telomere elongation in less than 10 days (K562 cells; K562 cells): ≥ 50 µM
telomere length (K562 cells; K562 cells, 100 μM of the indicated deoxynucleoside(s) for 8 days): rapidly and robustly increases telomere length; also recorded: promoted telomere lengthening, as did dT alone
telomere lengthening following dT with dNTPase-deficient SAMHD1 H215A or K312A variants (K562 cells; K562 cells, 10 days): could not restrict telomere lengthening following dT supplementation
telomere lengthening following dT treatment with overexpression of wild-type SAMHD1 (K562 cells; K562 cells, 10 days, compared to EGFP control): reduced telomere lengthening following dT treatment
lowest dT dose giving robust telomere lengthening without growth change (K562 cells; K562 cells, 34 days): ≥ 5 µM
telomere lengthening upon dT treatment in TK1-edited cells (K562 cells; K562 cells, CRISPR/Cas9 TK1 edited, 10 days): complete abrogation of the telomere lengthening
telomere lengthening upon dT treatment in TK2-edited cells (K562 cells; K562 cells, CRISPR/Cas9 TK2 edited, 10 days): no difference in telomere length increases compared to control AAVS1-targeted cells
telomere elongation, increase of base pairs (bp) per day (K562 cells; K562 cells, at 100 μM dT): 204 bp per day
telomere elongation, increase of base pairs (bp) per day (K562 cells; K562 cells, at […] dT): 132 bp per day
telomere lengthening in TYMS-knockout cells (K562 cells; K562 cells, baseline 16 μM dT, plus 100 μM additional dT or 1 mM dU, 10 days): responsive to dT to promote telomere lengthening
telomere elongation ([1]; 100 μM dT, three weeks): ~ 2000 bp
telomere elongation ([1]; dT for three weeks): significantly elongated telomeres
telomere lengthening with expression of a nucleoside kinase (dmDNK) [2]: Enhanced telomere lengthening from the combination of expressing a nucleoside kinase with dT treatment
replication stress signaling [3]: no indication of replication stress signaling
dT doses with minimal effects on cell cycle progression (wild-type iPSCs): ≤ 50 µM
telomere length increase ([4]; PARN deficient iPSCs): 570 bp
telomere length ([4]; TBD patient-derived iPSCs with two different mutations, 100 μM dT for 22 days (FIG. 13A)): increased telomere length
telomere length increase ([4]; TERC deficient iPSCs): 640 bp
telomere elongation [4]: produced telomere elongation in all cases
telomere elongation ([4]; listed as thymidine): hundreds of basepairs
dT doses with no detectable changes in cell cycle distribution (293T cells): below 100 μM
doses typically used to synchronize cells in S phase (cell cycle progression): 1 to 2 mM
aqueous solubility [5]: about 50 mg/ml
lifespan [6]: increased lifespan in a mouse model of TK2 deficiency
GGAAAG repeat content ([7]; 100 μM dT, 30 hours, wild-type versus T-free super-telomerase): an increase in GGAAAG repeat content exclusively in cells expressing T-free telomerase; also recorded: enhanced repeat synthesis by telomerase
rescue of GGAAAG repeat synthesis following 5FU treatment ([7]; dT with 5FU): could rescue the inhibition of GGAAAG repeat synthesis following 5FU treatment; also recorded: rescued by dT supplementation
